By melting point is commonly meant the temperature, or range, at which the solid turns liquid.

As for `CC(Oc1ccc(Oc2ccc(Oc3ccc(OC(C)C(=O)O)cc3)cc2)cc1)C(=O)O` (centres undefined), the melting point lay within 135 to 136 °C.
Compound `Clc1ccc(NC2CCCCC2)nn1` came in with a melting point of 161 to 163 °C.
As for `O=C1CC2(CCC2)C(CC(Cl)(Cl)Cl)O1` (centres undefined), the melting point is 86.5 to 87.5 °C.
In the case of `N#Cc1ccc(-c2cccc(-c3nc4ccc(C#N)cc4[nH]3)n2)cc1`, the melting point was 311 to 312 °C.
In the case of `CNCC(O)c1cccc(Cl)c1` (centres undefined) it was 95.5 to 97 °C.
The value for `COc1ccc(CCCN)cc1Cl` was 55 to 56 °C; that for `COc1cc2ncnc(N3CCC(CN)CC3)c2cc1OC` was 144 to 146 °C; that for `COc1cc(OC)cc(N2CCN(C(=O)Nc3nc(C)c(C)nc3OC)CC2)c1` was 136 to 137 °C.
Turning to `COC(=O)C(=O)c1ccc(OCCOCCOc2ccccc2)cc1`, the melting point was 75 to 76 °C.
As for `O=C(O)c1cc2c3c(ccc2[nH]1)OC[C@H](CO)O3`, the melting point is 216 to 217 °C.
In turn, `[N-]=[N+]=NC1(O)CC(n2ccc(N)nc2=O)OC1CO` (centres undefined) had a melting point of 174 to 176 °C.
In turn, `CC1CCN(c2ccc(C(=O)Nc3ccc4nc(CN5CCCC5)ccc4c3)cc2)CC1` yielded a melting point of 200 to 202 °C.
In the case of `CNC(=O)c1ccccc1C(O)c1ccc(F)cc1` (centres undefined) it was 133 to 134 °C; in that of `C/C(=C\COC(=O)c1ccccc1)CCc1c(C)c(O)c(C)c(C)c1O`, 112 to 114 °C; in that of `O=C1c2c(Cl)cccc2-n2cnc(-c3nc(C4CC4)no3)c2[C@@H]2CCCN12`, 213 to 214 °C.
As to `COC(=O)C1=C(C)NN=C(C(=O)OC(C)C)C1c1ccccc1Cl` (centres undefined), the melting point is 166 °C.
For the compound `CC(=O)c1c[nH]c(-c2ccncc2)c1C`, the melting point fell in the range of 210 to 211 °C.
Consider `COc1ccnc(CSc2nc3cc(-n4ccnc4)c(F)cc3[nH]2)c1`, for which the melting point lay in the range of 86 to 87 °C.
For the compound `CC(C)N(C(=O)n1oc(=O)n(C)c1=O)c1ccc(F)cc1`, the melting point lay within 135 to 136 °C.
The value for `COc1ccc(Cc2ncc[nH]2)cc1` was 158 to 160 °C; that for `CCOCC1(F)CCN([C@@H](c2ccc(C(F)(F)F)cc2CN(Cc2cc(C(F)(F)F)cc(C(F)(F)F)c2)c2nnn(C)n2)C(C)C)CC1` was 95 °C; that for `CC(C)c1cc(Cc2cnc(N)nc2N)cc(C(C)C)c1N` was 177 to 180 °C.
Turning to `CCc1cc(C(=O)c2ccccc2F)c(-n2c(C)nnc2CNC(=O)c2cc3ccccc3[nH]2)s1`, the melting point fell in the range of 255 to 256 °C.
In the case of `COC(=O)C1(CCCN2CCN(c3ccccc3)CC2)Sc2ccccc2CCC1O` (centres undefined) it was 152 to 154 °C; in that of `CCC[C@H]1CC[C@H](C(=O)O)CC1`, 97 to 98 °C.
Turning to `CCNC(=O)c1nc(-c2ccccc2)c(-c2ccc(=O)n(C(C)C)n2)s1`, the melting point lay within 172 to 174 °C.
In the case of `CN1CCN(C(=S)Cc2ccc(S(C)(=O)=O)cc2)CC1`, the melting point was in the range of 172 to 177 °C.
Regarding `CC12CCc3cc(C#N)ccc3C1=NNC(=O)C2` (centres undefined), the melting point was > 300 °C.
`Fc1ccc(-c2ccn(C3CCNCC3)c2-c2ccncc2)cc1` showed a melting point of 191 to 192 °C.
The compound `CCC(=CC(CNC(=O)c1cccnc1O)=NO)C(C)[N+](=O)[O-]` (centres undefined) yielded a melting point of 92 to 95 °C.
The value for `Cc1cccc(-c2[nH]c(C(C)C)nc2-c2cccc(-c3ccsc3)c2)n1` was 83 to 85 °C; that for `N#Cc1c(N2CCN(C(=O)c3cccs3)CC2)c2sccc2n(CC(=O)c2ccccc2)c1=O` was 300 °C; that for `CNC(=S)C1(c2cccc(C)n2)SCCCS1` was 168 °C.
The value for `C[C@@]1(F)[C@H](OC(=O)c2ccccc2)[C@@H](COC(=O)c2ccccc2)O[C@@H]1Br` was 59 to 61 °C.
`COc1ccc(N2CCN(c3c(C)c(C)c4c(c3C)CC(C)(C)O4)CC2)cc1F`: the melting point is 161 to 163 °C.
`COc1cc(COc2nn(-c3ccccc3)cc2/C=C/c2nc(N3CCCCC3)sc2C)ccc1OCc1nc(-c2ccc(CC(=O)O)cc2)oc1C` came in with a melting point of 146 to 148 °C.
`Clc1ccc(-c2nc(Cl)cc(NCCN3CCOCC3)n2)cc1` showed a melting point of 127 to 129 °C.
In the case of `CC(=O)OCC(O)(CN(C)S(=O)(=O)c1cc(C)ccc1C)c1ccccc1` (centres undefined) it was 84 to 85 °C; in that of `N=c1nc(N)c2nc[nH]c2c(N)n1`, > 200 °C; in that of `COc1ccc(-c2c(C(=O)O)[nH]c3cc(OC)c(OC)cc23)cc1OC`, 198 to 200 °C.
For the compound `CCOC(=O)CC[C@H](NC(=O)c1ccc(I)cc1)C(=O)OCC`, the melting point is 105 to 106 °C.
As for `CC(C)C(C#N)c1ccc([N+](=O)[O-])cc1` (centres undefined), the melting point is 71 to 72 °C.
`c1ccc2c(c1)CC1(c3c[nH]cn3)CCCC21` (centres undefined) came in with a melting point of 171 to 174 °C.
In the case of `CNc1nc(NC(=O)NS(=O)(=O)c2ccccc2Cl)nc(OC)n1` it was 224 to 228 °C.
Compound `CCS(=O)(=O)CCNC(=O)C1=C(C(=O)Nc2ccc(Cl)cc2F)CCCC1` gave a melting point of 150 to 151 °C.
The compound `COc1ccc(Cl)c(Oc2cnc(-c3ncccn3)nc2C=O)c1` gave a melting point of 211 °C.
In the case of `OC(CN1CCNC1=S)c1cccc(C(F)(F)F)c1` (centres undefined), the melting point turned out to be 117 °C.
As for `CC(=O)Nc1ccc(N2C(=O)C3CCC2n2c(=O)n(-c4ccccc4)c(=O)n23)cc1` (centres undefined), the melting point was in the range of 144 to 145 °C.
Compound `Cc1cc(F)ccc1-c1cc(N2CCS(=O)(=O)CC2)ncc1N(C)C(=O)C(C)(C)c1cc(C(F)(F)F)cc(C(F)(F)F)c1` had a melting point of 135 to 138 °C.
Compound `CCOC(=O)C=Cc1c(OCc2ccc(OCc3nc(-c4ccccc4)oc3C)cc2)ccc2ccccc12` returned a melting point of 73 to 74 °C.
Compound `O=C(NCc1ccc(C(F)(F)F)cc1)c1ccnc(NC(=O)c2ccccc2)c1` returned a melting point of 165 to 168 °C.
As to `O=C1Nc2ccccc2C12COc1ccc3nonc3c12` (centres undefined), the melting point is > 220 °C.
On to `CNc1ccc(C(=O)Nc2c(C)cccc2C)cn1`, for which the melting point fell in the range of 207 to 209 °C.
In the case of `COC(=O)Cc1ccsc1-c1ccccc1` it was 29 to 31 °C; in that of `CCCCCCCCCCCCCCCCCCOc1cc(OCCCOc2ccc(O)cc2)cc(C(=O)O)c1`, 92 to 95 °C; in that of `CCN(CC)C(=O)c1ccc2ccccc2c1-c1ccc2ccccc2c1`, 159 to 161 °C.
`OC(CNc1c(Br)cnc2ccccc12)c1ccccc1` (centres undefined) displayed a melting point of 131 to 132 °C.
For `CCCc1nn(C)c2c(=O)[nH]c(-c3cc([N+](=O)[O-])ccc3OCC)nc12`, the melting point fell in the range of 214 to 216 °C.
In turn, `O=[N+]([O-])c1ccc2nc(-c3ccc4c(c3)OCO4)ncc2c1` gave a melting point of 220 to 222 °C.
`C#CCOc1ccc(C)nc1` showed a melting point of 32 to 34 °C.
Turning to `O=Cc1c2ccccc2c(Cl)c2cc3ccccc3cc12`, the melting point was 212 to 214 °C.
On to `O=C(NNC(=O)C(F)(F)C(O)(Cn1cncn1)c1ccc(F)cc1F)c1ccc(F)cc1` (centres undefined), for which the melting point was 127 to 130 °C.
The compound `CC(CC(=O)NC(=O)OC(C)(C)C)Nc1ccc(Cl)cc1` (centres undefined) gave a melting point of 114 to 115 °C.
On to `ClCc1nc(Cl)c2sccc2n1`, for which the melting point fell in the range of 101 to 102 °C.
Consider `Cc1cc(C(Cc2ccc(CCCc3nc(-c4ccccc4)oc3C)cc2)C(=O)O)on1` (centres undefined), for which the melting point fell in the range of 133 to 135 °C.
Compound `COc1cc(CBr)c(Br)cc1OCc1ccccc1` yielded a melting point of 103 to 105 °C.
As for `CCC1(C)CC(S(=O)(=O)C(Cl)(Cl)c2cccc(F)c2)=NO1` (centres undefined), the melting point was determined as 100 °C.
The compound `CCCCCc1ccc(CCc2ccc(-c3ccc(CC)cc3F)cc2)cc1` displayed a melting point of 40 °C.
As to `COc1ccc2c(c1OCc1ccc(C(=O)O)cc1)CC(C(=O)O)N(C(=O)C(c1ccccc1)c1ccccc1)C2` (racemic), the melting point was 190 to 192 °C.
For the compound `Cc1ccc2ncc(CSc3ccc([N+](=O)[O-])cc3)n2c1`, the melting point lay within 127 to 128 °C.
The compound `CNS(=O)(=O)Cc1ccc2[nH]cc(C3CCN(C)C3)c2c1` (centres undefined) yielded a melting point of 160 to 162 °C.
Regarding `CON1CCC2(CC1)OC(=O)C(c1cc(C)c(C)cc1C)=C2O`, the melting point is 199 to 204 °C.
In turn, `CCOC(=O)C(C)(C)Oc1ccc2c(-c3ccc(Cl)cc3)noc2c1` yielded a melting point of 70 °C.
As to `Oc1ccc(C2(c3ccc(O)cc3)CCCCC2)cc1`, the melting point lay within 181 to 182 °C.
The value for `Cc1ccc(C2=C(C(=O)O)N(CC(C)C)Cc3ccc(OCc4ccccc4)cc32)cc1` was 153 to 154 °C; that for `CCOc1ccc(CC(NC(C)=O)C(=O)O)cc1OCC` (centres undefined) was 149 to 151 °C; that for `C[N+](C)([O-])c1ccc(/C=C/c2c(F)cccc2F)cc1` was 100 to 103 °C.
The value for `O=[N+]([O-])c1ccc(OCC#CC#CCOc2ccc([N+](=O)[O-])cc2[N+](=O)[O-])cc1` was 125 °C; that for `COc1cc(CC(=O)NC(CC(C)C)c2cc(CC(NC(C)=O)C(=O)O)on2)ccc1NC(=O)Nc1ccccc1C` (centres undefined) was 123 to 125 °C.
In turn, `COc1cc(C(C)=O)ccc1OCCCCCl` gave a melting point of 68.5 to 70.5 °C.
For the compound `CC1COCc2nc3c(N)nc4ccc(OCc5cscn5)cc4c3n21` (centres undefined), the melting point fell in the range of 240 to 242 °C.
The value for `C[C@]12CC[C@H](O)CC1=CCC1C2CC[C@@]2(C)C1CC[C@@H]2c1c[nH]nn1` (some centres undefined) was 275 to 277 °C; that for `Cc1c(Cc2ccc([N+](=O)[O-])cc2)c(=O)oc2cc(OCC#N)cc(OCC#N)c12` was 178 to 185 °C; that for `CN(C)C(=O)c1cn(C)c(=O)cc1Nc1ccc(I)cc1F` was 106 to 111 °C.
`c1ccc(-c2cc3c(N4CCOCC4)nnc(N4CCOCC4)c3cn2)cc1` gave a melting point of 186 to 188 °C.
`COc1nc2ccc(Br)cc2cc1C(c1ccccc1)n1cccn1` (centres undefined) had a melting point of 142 to 144 °C.
`Cc1ccc2c(NCc3ccc(NC(=O)C4CCN(Cc5ccccc5)CC4)cc3)nc(N(C)C)nc2c1`: the melting point is 100 °C.
`CCCOc1ccc(S(=O)(=O)N2CCN(CCO)CC2)cc1C(=O)OC` registered a melting point of 88 to 89 °C.
In the case of `CC(C)(C)OC(=O)N1C[C@H](n2ccc(NC(=O)c3ccccc3)nc2=O)C[C@@H]1C(=O)OC(c1ccccc1)c1ccccc1` it was 133 to 135 °C.
